These are literature values, as cited in patent publication US9981985B2, “Pharmaceutical formulations containing 3-(4-cinnamyl-l-piperazinyl) amino derivatives of 3-formylrifamycin SV and 3-formylrifamycin S and a process of their preparation” (Adipharm EAD, priority 2012, dated 2018).

For series [1] the following is noted: from U.S. Pat. No. 5,095,108.
For series [2] the following is noted: in vivo.
For series [3] the following is noted: in vivo tests, in comparison to rifampicin; from U.S. Pat. No. 5,095,108.
For series [4] the following is noted: in vivo. The source holds these as a separate data set.

Take `CO[C@H]1/C=C/O[C@@]2(C)Oc3c(C)c(O)c4c(O)c(c(/C=N/N5CCN(C/C=C/c6ccccc6)CC5)c(O)c4c3C2=O)NC(=O)/C(C)=C\C=C\[C@H](C)[C@H](O)[C@@H](C)[C@@H](O)[C@@H](C)[C@H](OC(C)=O)[C@@H]1C` [Ia, 3-(4-cinnamyl-1-piperazinyl)-iminomethyl rifamycin SV]: the acute toxicity result in series [1] is “low”. Further, the serum half-life entry in series [2] is listed as “considerably longer”. Further, the therapeutic effect result in series [3] is “higher therapeutic effect in comparison to rifampicin”.

As to “sodium salt of 3-(4-cinnamyl-1-piperazinyl)-iminomethyl rifamycin SV [Compound Ib]”, in series [4], the pharmacokinetic properties entry was “better” and the resorption result was “faster”.
